Experimental data as given in ChEMBL document CHEMBL3870312, “Rational modification of donepezil as multifunctional acetylcholinesterase inhibitors for the treatment of Alzheimer's disease” (Eur J Med Chem, 2016).
Active and inactive are the calls of the source. The calls are words filed in the database; no cut-off is given here.

How the values were obtained:
[1] = tested on: Mus musculus; assay: Hepatotoxicity in scopolamine-induced memory deficit Kunming mouse model assessed as increase in alanine aminotransferase levels at 10 mg/kg, po for 6 days; format: toxicity, organism-based; details: in vivo, 144 h
[2] = species on record: Rattus norvegicus; assay: Cytotoxicity against rat PC12 cells assessed as reduction in cell viability at 3.125 to 50 uM after 24 hrs by MTT assay; format: toxicity; details: pc-12, 24 h
[3] = tested on: PC-12; assay: Neuroprotective activity against amyloid beta (1 to 42 residues) induced cell death in rat PC12 cells assessed as increase in cell viability at 10 to 20 uM preincubated for 24 hrs followed by amyloid beta (1 to 42 residues) addition measured after 24 hrs by MTT assay; format: functional, cell-based
[4] = target: Cholinesterase (Equus caballus, UniProt P81908)
Chain of Cholinesterase (Equus caballus, UniProt P81908) (P81908 whole entry): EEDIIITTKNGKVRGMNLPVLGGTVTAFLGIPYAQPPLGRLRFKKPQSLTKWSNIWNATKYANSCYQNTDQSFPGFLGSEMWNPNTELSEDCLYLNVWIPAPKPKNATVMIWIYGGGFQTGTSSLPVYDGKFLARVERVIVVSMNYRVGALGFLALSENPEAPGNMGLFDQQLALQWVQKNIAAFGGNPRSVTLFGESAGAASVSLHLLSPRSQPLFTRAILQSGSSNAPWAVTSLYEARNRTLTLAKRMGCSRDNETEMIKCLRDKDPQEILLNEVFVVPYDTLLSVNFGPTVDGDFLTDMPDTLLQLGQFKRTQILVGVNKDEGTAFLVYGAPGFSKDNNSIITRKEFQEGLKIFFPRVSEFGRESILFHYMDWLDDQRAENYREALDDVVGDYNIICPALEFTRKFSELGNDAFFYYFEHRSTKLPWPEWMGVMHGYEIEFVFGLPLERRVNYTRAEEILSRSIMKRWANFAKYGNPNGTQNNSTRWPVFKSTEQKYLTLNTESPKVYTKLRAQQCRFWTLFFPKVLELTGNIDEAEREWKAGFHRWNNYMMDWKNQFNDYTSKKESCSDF
Description: Inhibition of equine serum BuChE using s-butyrylthiocholine iodide as substrate preincubated for 5 mins followed by substrate addition measured up to 3 mins by Ellman's method

[5] = tested on: Mus musculus; assay: Hepatotoxicity in scopolamine-induced memory deficit Kunming mouse model assessed as increase in number of inflammatory cells in portal fields of liver at 10 mg/Kg, po for 6 days by hematoxylin and eosin-staining based microscopic analysis; format: toxicity, organism-based; details: in vivo, 144 h
[6] = tested on: Mus musculus; assay: Toxicity in scopolamine-induced memory deficit Kunming mouse model assessed as change in body weight at 2.5 to 10 mg/Kg, po for 7 days; format: organism-based; details: in vivo, 168 h
[7] = tested on: PC-12; assay: Neuroprotective activity against Cu2+-amyloid beta (1 to 42 residues) induced cell death in rat PC12 cells by phase-contrast microscopy analysis; format: functional, cell-based
[8] = Metal chelating activity of the compound assessed as formation of ferric complex at 50 uM by fluorescence spectrophotometry; format: physicochemical
[9] = target: Amyloid-beta precursor protein (Homo sapiens) (UniProt P05067); details: at 20 µM
Chain of Amyloid-beta precursor protein (Homo sapiens) (P05067 whole entry): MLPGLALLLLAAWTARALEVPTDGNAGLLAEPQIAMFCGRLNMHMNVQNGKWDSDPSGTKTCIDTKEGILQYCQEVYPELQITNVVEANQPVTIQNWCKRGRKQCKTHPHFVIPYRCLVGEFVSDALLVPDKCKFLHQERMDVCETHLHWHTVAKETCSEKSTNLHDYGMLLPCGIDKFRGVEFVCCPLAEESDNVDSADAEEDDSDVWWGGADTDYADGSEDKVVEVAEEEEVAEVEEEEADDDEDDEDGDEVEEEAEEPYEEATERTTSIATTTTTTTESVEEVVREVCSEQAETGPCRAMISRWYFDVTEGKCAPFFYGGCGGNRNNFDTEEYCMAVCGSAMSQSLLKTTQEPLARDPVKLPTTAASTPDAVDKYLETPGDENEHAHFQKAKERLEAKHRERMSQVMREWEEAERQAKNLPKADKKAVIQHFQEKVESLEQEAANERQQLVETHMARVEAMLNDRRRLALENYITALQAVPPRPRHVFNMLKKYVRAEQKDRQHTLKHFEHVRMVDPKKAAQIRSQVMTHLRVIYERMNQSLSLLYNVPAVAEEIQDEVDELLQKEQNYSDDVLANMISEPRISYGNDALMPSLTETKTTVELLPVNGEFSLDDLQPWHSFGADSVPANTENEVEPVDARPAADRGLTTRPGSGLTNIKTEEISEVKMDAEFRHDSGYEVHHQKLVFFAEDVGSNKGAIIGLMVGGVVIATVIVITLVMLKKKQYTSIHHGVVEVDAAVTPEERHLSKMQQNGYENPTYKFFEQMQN
Description: Inhibition of self-mediated aggregation of amyloid beta (1 to 42 residues) (unknown origin) at 20 uM incubated for 46 to 48 hrs by Thioflavin T binding assay relative to control

[10] = tested on: Mus musculus; assay: Toxicity in scopolamine-induced memory deficit Kunming mouse model assessed as effect on survival at 2.5 to 10 mg/Kg, po for 7 days; format: organism-based; details: in vivo, 168 h
[11] = Metal chelating activity assessed as Zn2+-compound complex formation at 50 uM by fluorescence spectrophotometry; format: physicochemical
[12] = target: T1, Acetylcholinesterase (Homo sapiens, UniProt P22303); assay: Mixed-type inhibition of human erythrocyte AChE preincubated for 15 mins followed by addition of acetylthiocholine iodide as substrate in varying concentrations by Lineweaver-Burk reciprocal plot analysis
T1 sequence (P22303 whole entry): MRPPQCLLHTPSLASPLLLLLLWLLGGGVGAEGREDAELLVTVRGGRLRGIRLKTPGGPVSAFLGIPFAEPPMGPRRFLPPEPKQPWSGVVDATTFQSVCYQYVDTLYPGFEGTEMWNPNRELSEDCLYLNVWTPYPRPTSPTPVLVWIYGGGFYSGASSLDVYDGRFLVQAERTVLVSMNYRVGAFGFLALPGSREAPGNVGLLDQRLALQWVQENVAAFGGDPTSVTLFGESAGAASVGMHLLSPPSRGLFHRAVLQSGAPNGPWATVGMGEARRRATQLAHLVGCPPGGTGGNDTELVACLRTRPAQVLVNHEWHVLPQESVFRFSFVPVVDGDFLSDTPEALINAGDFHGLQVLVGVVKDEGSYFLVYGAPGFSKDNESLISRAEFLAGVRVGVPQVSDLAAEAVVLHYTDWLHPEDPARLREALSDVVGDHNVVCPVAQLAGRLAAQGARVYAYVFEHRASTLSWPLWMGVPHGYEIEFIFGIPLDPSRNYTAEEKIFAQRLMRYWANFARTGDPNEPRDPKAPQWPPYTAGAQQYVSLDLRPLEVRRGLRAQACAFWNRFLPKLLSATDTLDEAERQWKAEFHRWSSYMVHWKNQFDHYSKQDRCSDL

[13] = tested on: Mus musculus; assay: Hepatotoxicity in scopolamine-induced memory deficit Kunming mouse model assessed as increased aspartate aminotransferase at 10 mg/Kg, po for 6 days; format: toxicity, organism-based; details: in vivo, 144 h
[14] = Metal chelating activity of the compound assessed as formation of copper complex at 10 uM by UV-vis spectrometry; format: physicochemical
[15] = tested on: Mus musculus; assay: Hepatotoxicity in scopolamine-induced memory deficit Kunming mouse model assessed as distinct fatty degeneration in hepatocytes at 10 mg/Kg, po for 6 days by hematoxylin and eosin-staining based microscopic analysis; format: toxicity, organism-based; details: in vivo, 144 h
[16] = tested on: Mus musculus; assay: Cognitive enhancement activity in po dosed scopolamine-induced memory deficit Kunming mouse model assessed as increase in step-through latency time treated for 1 hr before training followed by scopolamine challenge 30 mins before training measured 24 hrs after training trial by passive avoidance test; format: functional, organism-based
[17] = target: T1, Acetylcholinesterase
Description: Inhibition of human erythrocytes AChE using acetylthiocholine iodide as substrate preincubated for 5 mins followed by substrate addition measured up to 3 mins by Ellman's method

[18] = target: Cholinesterase (Homo sapiens, UniProt P06276)
Chain of Cholinesterase (Homo sapiens, UniProt P06276) (P06276 whole entry, the tested form may be a part): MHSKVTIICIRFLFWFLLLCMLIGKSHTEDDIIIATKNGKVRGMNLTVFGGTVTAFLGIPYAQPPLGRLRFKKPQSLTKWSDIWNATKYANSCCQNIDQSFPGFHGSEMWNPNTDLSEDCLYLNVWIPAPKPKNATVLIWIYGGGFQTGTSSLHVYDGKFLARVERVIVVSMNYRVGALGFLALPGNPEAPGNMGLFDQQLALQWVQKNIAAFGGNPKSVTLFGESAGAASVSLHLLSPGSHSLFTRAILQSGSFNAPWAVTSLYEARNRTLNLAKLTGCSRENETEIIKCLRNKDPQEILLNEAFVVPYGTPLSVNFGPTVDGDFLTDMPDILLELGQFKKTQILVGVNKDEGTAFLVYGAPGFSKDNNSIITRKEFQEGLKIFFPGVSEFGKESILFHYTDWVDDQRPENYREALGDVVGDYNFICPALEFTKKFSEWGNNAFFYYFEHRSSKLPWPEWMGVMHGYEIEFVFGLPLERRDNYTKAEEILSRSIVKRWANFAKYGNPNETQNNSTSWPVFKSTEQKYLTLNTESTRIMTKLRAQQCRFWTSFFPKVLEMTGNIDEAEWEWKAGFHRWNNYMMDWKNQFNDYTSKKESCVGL
Description: Inhibition of human serum BuChE using s-butyrylthiocholine iodide as substrate preincubated for 5 mins followed by substrate addition measured up to 3 mins by Ellman's method

[19] = tested on: PC-12; assay: Neuroprotective activity against amyloid beta (1 to 42 residues) induced cell death in rat PC12 cells by phase-contrast microscopy analysis; format: functional, cell-based
[20] = Inhibition of copper-mediated aggregation of amyloid beta (1 to 42 residues) (unknown origin) incubated for 46 to 48 hrs by thioflavin-T binding assay; format: physicochemical
[21] = target: Acetylcholinesterase (Electrophorus electricus, UniProt O42275)
Chain of Acetylcholinesterase (Electrophorus electricus, UniProt O42275) (O42275 whole entry): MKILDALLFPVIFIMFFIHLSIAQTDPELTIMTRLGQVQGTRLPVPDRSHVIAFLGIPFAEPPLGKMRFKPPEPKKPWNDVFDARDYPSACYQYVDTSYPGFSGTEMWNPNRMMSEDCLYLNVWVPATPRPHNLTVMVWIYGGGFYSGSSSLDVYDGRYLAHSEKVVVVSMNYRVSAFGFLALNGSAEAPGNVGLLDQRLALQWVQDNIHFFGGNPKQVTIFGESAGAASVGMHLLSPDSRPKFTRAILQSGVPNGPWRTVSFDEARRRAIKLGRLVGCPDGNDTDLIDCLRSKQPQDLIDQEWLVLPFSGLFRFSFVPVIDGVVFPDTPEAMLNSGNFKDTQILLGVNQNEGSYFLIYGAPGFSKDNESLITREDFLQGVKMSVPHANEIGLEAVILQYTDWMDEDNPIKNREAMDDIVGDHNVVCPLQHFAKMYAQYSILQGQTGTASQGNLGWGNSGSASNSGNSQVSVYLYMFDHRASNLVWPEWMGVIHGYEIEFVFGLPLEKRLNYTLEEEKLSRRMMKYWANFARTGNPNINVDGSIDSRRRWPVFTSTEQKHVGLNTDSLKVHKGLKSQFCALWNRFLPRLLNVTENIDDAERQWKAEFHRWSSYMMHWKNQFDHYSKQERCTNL
Description: Inhibition of electric eel AChE using acetylthiocholine iodide as substrate preincubated for 5 mins followed by substrate addition measured up to 3 mins by Ellman's method

[22] = Metal chelating activity of the compound assessed as formation of copper complex at 50 uM by fluorescence spectrophotometry; format: physicochemical
[23] = Metal chelating activity assessed as mole fraction of compound required to show 1:1 stoichiometry for Cu2+-compound complex at 10 uM by UV-vis spectrometry; format: physicochemical
[24] = tested on: Mus musculus; assay: Hepatotoxicity in scopolamine-induced memory deficit Kunming mouse model assessed as area of necrosis in hepatocytes at 10 mg/Kg, po for 6 days by hematoxylin and eosin-staining based microscopic analysis; format: toxicity, organism-based, Hepatocyte; details: 144 h
[25] = in vitro; details: PAMPA
Description: Effective permeability of the compound after 18 hrs by PAMPA

[26] = tested on: PC-12; assay: Neuroprotective activity against Cu2+-amyloid beta (1 to 42 residues) induced cell death in rat PC12 cells assessed as increase in cell viability at 2.5 to 20 uM preincubated for 24 hrs followed by Cu2+-amyloid beta (1 to 42 residues) addition measured after 24 hrs by MTT assay; format: functional, cell-based
[27] = Inhibition of copper-mediated aggregation of amyloid beta (1 to 42 residues) (unknown origin) at 20 uM incubated for 46 to 48 hrs by thioflavin-T binding assay relative to control; format: physicochemical
[28] = tested on: Mus musculus; assay: Hepatotoxicity in Kunming mouse assessed as distinct fatty degeneration in hepatocytes at 3 mg/kg, po for 6 days by hematoxylin and eosin-staining based microscopic analysis; format: toxicity, organism-based; details: in vivo, 144 h
[29] = tested on: Mus musculus; assay: Hepatotoxicity in Kunming mouse assessed as area of necrosis in hepatocytes at 3 mg/kg, po for 6 days by hematoxylin and eosin-staining based microscopic analysis; format: toxicity, organism-based, Hepatocyte; details: 144 h
[30] = tested on: Mus musculus; assay: Hepatotoxicity in Kunming mouse assessed as increase in number of inflammatory cells in portal fields of liver at 3 mg/kg, po for 6 days by hematoxylin and eosin-staining based microscopic analysis; format: toxicity, organism-based; details: in vivo, 144 h
[31] = tested on: PC-12; assay: Neuroprotective activity against amyloid beta (1 to 42 residues) induced cell death in rat PC12 cells assessed as increase in cell viability at 20 uM preincubated for 24 hrs followed by amyloid beta (1 to 42 residues) addition measured after 24 hrs by MTT assay; format: functional, cell-based

Structure (SMILES)	IC50 [4]	inhibition [9]	IC50 [17]	IC50 [18]	IC50 [21]	Papp at 18 h [25]	further results
COc1cc2c(cc1OC)C(=O)C(CC1CCN(Cc3cccc(C)n3)CC1)C2 (configuration not stated)	20.5 µM	18.5%	0.073 µM	65.7 µM	0.085 µM	9.7 ×10⁻⁶ cm/s	Activity [1]: Non-Toxic; Activity [2]: Non-Toxic; Activity [3]: Active; Activity [5]: Non-Toxic; Activity [6]: Non-Toxic; Activity [7]: Active; Activity [8]: Active; Activity [10]: Non-Toxic; Activity [11]: Active; inhibition [12]: Active; Activity [13]: Non-Toxic; Activity [14]: Active; Activity [15]: Non-Toxic; Activity [16]: Dose-dependent effect; Activity [19]: Active; inhibition (INH) [20]: Dose-dependent effect; Activity [22]: Active; Activity [23]: 0.9 molar ratio; Activity [24]: Non-Toxic; Activity [26]: Active
COc1cc2c(cc1OC)C(=O)C(CC1CCN(Cc3ccccn3)CC1)C2 (configuration not stated)	7.83 µM		0.147 µM	38.6 µM	1.09 µM		
COc1cc2c(cc1OC)C(=O)C(CC1CCN(Cc3ccc(C(F)(F)F)cc3)CC1)C2 (configuration not stated)	3.98 µM		5.43 µM		2.03 µM		
COc1cc2c(cc1OC)C(=O)C(CC1CCN(Cc3cccc(C)c3)CC1)C2 (configuration not stated)	5.83 µM	> 10%	0.088 µM	28.1 µM	0.108 µM	12.6 ×10⁻⁶ cm/s	inhibition (INH) [27]: < 10%
COc1cc2c(cc1OC)C(=O)C(CC1CCN(Cc3ccc(O)c4ncccc34)CC1)C2 (configuration not stated)	7.65 µM	51.1%	20.9 µM		27.3 µM	8.8 ×10⁻⁶ cm/s	Activity [2]: Non-Toxic; Activity [3]: Active; Activity [7]: Active; Activity [19]: Active; Activity [26]: Active
COc1cc2c(cc1OC)C(=O)C(CC1CCN(Cc3ccc(Cl)cc3)CC1)C2 (configuration not stated)	89.4 µM		2.86 µM	81.6 µM	4.8 µM		
COc1cc2c(cc1OC)C(=O)C(CC1CCN(Cc3ccccc3F)CC1)C2 (configuration not stated)	3.71 µM	> 10%	0.032 µM	12.8 µM	0.043 µM	13.7 ×10⁻⁶ cm/s	Activity [1]: Non-Toxic; Activity [2]: Non-Toxic; Activity [5]: Non-Toxic; Activity [6]: Non-Toxic; Activity [10]: Non-Toxic; inhibition [12]: Active; Activity [13]: Non-Toxic; Activity [15]: Non-Toxic; inhibition (INH) [27]: < 10%; Activity [16]: Dose-dependent effect; Activity [24]: Non-Toxic
CN1[C@@H]2C[C@@H](OC(=O)[C@H](CO)c3ccccc3)C[C@H]1[C@@H]1O[C@H]12							Activity [28]: Non-Toxic; Activity [29]: Non-Toxic; Activity [30]: Non-Toxic
COc1ccc2[nH]cc(CCNC(C)=O)c2c1							Activity [31]: Active
COC(=O)c1cccc(CN2CCC(CC3Cc4cc(OC)c(OC)cc4C3=O)CC2)n1 (configuration not stated)	29.5 µM		5.78 µM	25.4 µM	0.511 µM		
COc1cc2c(cc1OC)C(=O)C(CC1CCN(Cc3ccc(C)cc3)CC1)C2 (configuration not stated)	6.67 µM		0.127 µM	43.8 µM	0.221 µM		Activity [2]: Non-Toxic
COc1cc2c(cc1OC)C(=O)C(CC1CCN(Cc3cccc([N+](=O)[O-])c3)CC1)C2 (configuration not stated)	42.4 µM		0.652 µM		0.414 µM		
COc1cc2c(cc1OC)C(=O)C(CC1CCN(Cc3ccc([N+](=O)[O-])cc3)CC1)C2 (configuration not stated)	12.2 µM		1.91 µM	85.8 µM	4.02 µM		
COc1cc2c(cc1OC)C(=O)C(CC1CCN(Cc3ccc4cccc(O)c4n3)CC1)C2 (configuration not stated)	4.53 µM	44.8%	29.8 µM	37.4 µM	6.42 µM	6.1 ×10⁻⁶ cm/s	
